One series deals with HDAC2 (Homo sapiens (Human), UniProt Q92769). Nature of the series: HDAC activity inhibition assay, HDAC2. Format: biochemical. How it is done: (§1) The HDAC activity inhibition assay was performed as follows to determine the ability of a test compound to inhibit HDAC enzymatic activity. […] Following pre-incubation, Fluor-de-Lys™ substrate (Enzo Life Sciences, Plymouth Meeting, Pa., BML-KI104-0050) was added to a final concentration of 10 μM and plates were further incubated for 30 minutes at room temperature. […] IC50 values were calculated by using a sigmoidal dose-response (variable slope) equation in GraphPad Prism® 5 for Windows (GraphPad Software, La Jolla, Calif.).

A further series addresses HDAC3/NcoR2 (Homo sapiens (Human), UniProt O15379). As to the kind of experiment: HDAC activity inhibition assay, HDAC3/NcoR2. Format: biochemical. How it is done: as §1
The target in another series is HDAC1 (Homo sapiens (Human), UniProt Q13547). As to the kind of experiment: HDAC activity inhibition assay, HDAC1. The following applies: Table 1; 2 hours pre-incubation. The format is biochemical. How it is done:
as §1

The nature of series [1]: Acid stability determination. The format is physicochemical. The following applies: 100 μM in 0.01 M HCl, 50° C. Here is the method:
A 100 μM solution of test compound was prepared by dilution of a 10 mM DMSO stock solution in a 0.01 M solution of HCl in deionized water. Immediately after mixing, an aliquot (100 μL) was sampled and analyzed by HPLC/UV. The area under the compound peak was determined and used as the time zero reference point. The remainder of the acid sample was incubated at 50° C. and samples were taken after 2, 4, and 24 hours of incubation. On a few occasions, samples were taken at 30 rather than 24 hours. These were analyzed by the same HPLC/UV method and the area of the peak corresponding to the test compound was measured. Percent remaining at a given time point was then calculated as the ratio of the area under the peak after incubation to that at time zero times 100. In those cases where a 30 hour time point was recorded, the percent remaining at 24 hours was obtained by interpolation of the percent remaining versus time curve assuming a unimolecular process, i.e. a monoexponential decay. Percent remaining after 24 hours incubation are presented in Tables 2 and 4 below, where A corresponds to more than 60%, B is between 40 and 60%, C covers 20 to 40% and D means less than 20%.

[2] abbreviates: Table 1, 2 hours pre-incubation.

Molecules are shown by their SMILES. pIC50: −log10 of the molar value. Like-named read-outs stand apart in the source and are kept apart here.

HDAC3/NcoR2, sequence (O15379 whole entry): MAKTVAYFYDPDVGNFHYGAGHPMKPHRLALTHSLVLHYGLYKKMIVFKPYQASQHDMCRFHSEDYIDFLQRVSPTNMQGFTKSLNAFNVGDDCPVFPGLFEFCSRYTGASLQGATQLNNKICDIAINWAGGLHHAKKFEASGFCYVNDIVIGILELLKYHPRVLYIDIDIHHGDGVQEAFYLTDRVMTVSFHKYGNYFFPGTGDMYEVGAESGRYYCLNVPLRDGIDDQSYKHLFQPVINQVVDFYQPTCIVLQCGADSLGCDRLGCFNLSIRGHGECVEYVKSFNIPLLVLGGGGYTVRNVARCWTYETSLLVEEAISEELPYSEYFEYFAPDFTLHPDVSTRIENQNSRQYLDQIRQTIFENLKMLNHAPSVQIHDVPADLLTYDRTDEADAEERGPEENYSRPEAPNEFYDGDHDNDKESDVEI
HDAC3/NcoR2, sequence (Q9Y618 395-489 partner): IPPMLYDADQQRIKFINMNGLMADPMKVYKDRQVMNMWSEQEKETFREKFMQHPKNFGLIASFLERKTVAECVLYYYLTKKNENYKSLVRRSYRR
HDAC2, sequence (Q92769 whole entry): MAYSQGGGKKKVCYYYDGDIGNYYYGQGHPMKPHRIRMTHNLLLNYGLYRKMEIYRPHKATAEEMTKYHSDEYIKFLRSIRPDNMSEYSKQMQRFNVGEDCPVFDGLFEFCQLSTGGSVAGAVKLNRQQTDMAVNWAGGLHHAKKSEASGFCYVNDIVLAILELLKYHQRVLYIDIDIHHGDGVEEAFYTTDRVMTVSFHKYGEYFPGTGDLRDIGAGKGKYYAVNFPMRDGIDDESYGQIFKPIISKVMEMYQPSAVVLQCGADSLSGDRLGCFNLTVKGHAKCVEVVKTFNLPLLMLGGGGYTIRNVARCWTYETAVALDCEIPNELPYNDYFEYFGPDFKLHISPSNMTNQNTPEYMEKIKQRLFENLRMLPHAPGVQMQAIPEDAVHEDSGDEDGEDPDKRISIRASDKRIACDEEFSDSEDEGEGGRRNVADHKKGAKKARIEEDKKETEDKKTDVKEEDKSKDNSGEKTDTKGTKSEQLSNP
HDAC1, sequence (Q13547 whole entry): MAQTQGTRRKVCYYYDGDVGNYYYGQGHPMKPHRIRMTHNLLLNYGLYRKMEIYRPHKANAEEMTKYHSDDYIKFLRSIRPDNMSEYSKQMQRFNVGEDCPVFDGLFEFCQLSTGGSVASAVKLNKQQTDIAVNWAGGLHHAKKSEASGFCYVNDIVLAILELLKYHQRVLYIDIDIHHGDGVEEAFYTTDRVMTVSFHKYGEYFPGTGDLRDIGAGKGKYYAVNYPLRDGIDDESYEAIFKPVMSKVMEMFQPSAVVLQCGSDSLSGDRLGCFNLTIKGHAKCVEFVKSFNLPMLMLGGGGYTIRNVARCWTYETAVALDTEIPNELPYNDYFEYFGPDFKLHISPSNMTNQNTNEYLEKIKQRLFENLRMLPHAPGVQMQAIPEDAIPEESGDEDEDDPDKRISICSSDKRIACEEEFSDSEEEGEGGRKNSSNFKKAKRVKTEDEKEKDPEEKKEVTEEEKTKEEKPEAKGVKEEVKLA

For `Cc1nc(/C=C/C(=O)Nc2ccccc2N)cs1` [A1], the pIC50 was 5.00 to 5.30 at HDAC2 (setting [2]), above 6.00 at HDAC3/NcoR2 (setting [2]) and 5.30 to 6.00 at HDAC1.

Turning to `Cn1cc(/C=C/C(=O)Nc2ccccc2N)cn1` [A2], the pIC50 is 4.70 to 5.00 against HDAC2 (setting [2]), above 6.00 against HDAC3/NcoR2 (setting [2]) and 5.00 to 5.30 at HDAC1. Besides, the “acid stability (percent remaining after 24 hours incubation)” value in series [1] is “B (B is between 40 and 60%)”.

As to `Cc1ncc(/C=C/C(=O)Nc2ccccc2N)s1` [A3], the pIC50 was 5.00 to 5.30 at HDAC2 (setting [2]), above 6.00 against HDAC3/NcoR2 (setting [2]) and 5.00 to 5.30 against HDAC1.

With `Cc1nc(/C=C/C(=O)Nc2ccccc2N)co1` [A4], the negative logarithm of the IC50 (pIC50) is below 4.70 against HDAC2 (setting [2]), 5.30 to 6.00 on HDAC3/NcoR2 (setting [2]) and below 4.70 on HDAC1.

Take `Cc1cc(/C=C/C(=O)Nc2ccccc2N)on1` [A5]: the pIC50 was 4.70 to 5.00 against HDAC2 (setting [2]), above 6.00 at HDAC3/NcoR2 (setting [2]) and 4.70 to 5.00 against HDAC1. Moreover, the “acid stability (percent remaining after 24 hours incubation)” value in series [1] is “B (B is between 40 and 60%)”.

Regarding `Nc1ccccc1NC(=O)/C=C/c1cnc2ccccn12` [A6, (E)-N-(2-aminophenyl)-3-(imidazo[1,2-a]pyridin-3-yl)acrylamide], the pIC50 against HDAC2 (setting [2]) was 5.00 to 5.30; against HDAC3/NcoR2 (setting [2]), above 6.00; at HDAC1, 5.00 to 5.30.

Consider `Cn1ccc(/C=C/C(=O)Nc2ccccc2N)n1` [A7], for which the results for the pIC50 against HDAC2 (setting [2]), on HDAC3/NcoR2 (setting [2]) and against HDAC1 were 5.30 to 6.00, above 6.00 and 5.30 to 6.00, respectively.

Take `Nc1ccccc1NC(=O)/C=C/c1cc2ccccn2n1` [A8]: the values for the pIC50 against HDAC2 (setting [2]), on HDAC3/NcoR2 (setting [2]) and against HDAC1 were 5.30 to 6.00, above 6.00 and above 6.00, respectively. Besides, in series [1], the “acid stability (percent remaining after 24 hours incubation)” value is “B (B is between 40 and 60%)”.

As to `Nc1ccccc1NC(=O)/C=C/c1cn2ccccc2n1` [A9], the negative logarithm of the IC50 (pIC50) against HDAC2 (setting [2]) was 5.30 to 6.00; at HDAC3/NcoR2 (setting [2]) it was above 6.00; on HDAC1, 5.30 to 6.00.

`Nc1ccccc1NC(=O)/C=C/c1cn2ccnc2s1` [A10]: the results for the pIC50 against HDAC2 (setting [2]), at HDAC3/NcoR2 (setting [2]) and against HDAC1 were 5.30 to 6.00, above 6.00 and 5.30 to 6.00, respectively.

As to `Nc1ccccc1NC(=O)/C=C/c1cnn(-c2ccccc2)c1` [A11], the pIC50 is 5.30 to 6.00 on HDAC2 (setting [2]), above 6.00 against HDAC3/NcoR2 (setting [2]) and 5.30 to 6.00 at HDAC1. The “acid stability (percent remaining after 24 hours incubation)” value in series [1] is reported as “A (A corresponds to more than 60%)”.

On to `Cn1cnc(/C=C/C(=O)Nc2ccccc2N)c1` [A12], for which the values for the pIC50 against HDAC2 (setting [2]), at HDAC3/NcoR2 (setting [2]) and at HDAC1 were 5.00 to 5.30, above 6.00 and 5.30 to 6.00, respectively.

Consider `Nc1ccccc1NC(=O)/C=C/c1cnn(CC2CC2)c1` [B1], for which the results for the pIC50 against HDAC2 (setting [2]), against HDAC3/NcoR2 (setting [2]) and at HDAC1 were 5.00 to 5.30, above 6.00 and 5.30 to 6.00, respectively.

For the compound `Nc1ccccc1NC(=O)/C=C/c1cnn(C/C=C/c2ccc(F)cc2)c1` [B2], the pIC50 on HDAC2 (setting [2]) was 5.30 to 6.00; against HDAC3/NcoR2 (setting [2]) it was above 6.00; at HDAC1, above 6.00.

As for `Nc1ccccc1NC(=O)/C=C/c1cnn(CCOc2cc(F)cc(F)c2)c1` [B3, (E)-N-(2-aminophenyl)-3-(1-(2-(3,5-difluorophenoxy)ethyl)-1H-pyrazol-4-yl)acrylamide], the pIC50 at HDAC2 (setting [2]), against HDAC3/NcoR2 (setting [2]) and against HDAC1 was above 6.00 in each case.

As for `Nc1ccccc1NC(=O)/C=C/c1cnn(CCOc2ccc(C(F)(F)F)cc2)c1` [B4], the pIC50 against HDAC2 (setting [2]) is 5.30 to 6.00; at HDAC3/NcoR2 (setting [2]) it was above 6.00; against HDAC1, above 6.00.

Consider `Nc1ccccc1NC(=O)/C=C/c1cnn(CCOc2cc(F)cc(Cl)c2)c1` [B5, (E)-N-(2-aminophenyl)-3-(1-(2-(3-chloro-5-fluorophenoxy)ethyl)-1H-pyrazol-4-yl)acrylamide], for which the pIC50 against HDAC2 (setting [2]), at HDAC3/NcoR2 (setting [2]) and against HDAC1 was above 6.00 each time.

As for `Nc1ccccc1NC(=O)/C=C/c1cnn(CCOc2ccc(F)cc2)c1` [B6], the pIC50 on HDAC2 (setting [2]), against HDAC3/NcoR2 (setting [2]) and at HDAC1 was above 6.00 each time.

For the compound `CCn1cc(/C=C/C(=O)Nc2ccccc2N)cn1` [C1], the pIC50 on HDAC2 (setting [2]) is 5.30 to 6.00; against HDAC3/NcoR2 (setting [2]), above 6.00; on HDAC1 it was 5.30 to 6.00.

Turning to `Cn1cc(/C=C/C(=O)Nc2ccc(F)cc2N)cn1` [C2], the figures for the negative logarithm of the IC50 (pIC50) against HDAC2 and against HDAC3/NcoR2 were below 4.70 and 5.30 to 6.00, respectively.

With `Nc1ccccc1NC(=O)/C=C/c1cnn(Cc2ccc(F)cc2)c1` [D5], the pIC50 is 5.30 to 6.00 against HDAC2 (setting [2]), above 6.00 on HDAC3/NcoR2 (setting [2]) and above 6.00 on HDAC1.

`CN(CCCn1cc(/C=C/C(=O)Nc2ccccc2N)cn1)c1ccccc1` [D12]: the “acid stability (percent remaining after 24 hours incubation)” value in series [1] is reported as “A (A corresponds to more than 60%)”.

As for `Nc1ccccc1NC(=O)/C=C/c1cnn(CCc2c[nH]c3ccccc23)c1` [D13], the negative-log IC50 (pIC50) against HDAC2 (setting [2]), at HDAC3/NcoR2 (setting [2]) and on HDAC1 was above 6.00 in each case.

Turning to `Nc1ccccc1NC(=O)/C=C/c1cnn(CCCOc2ccccc2)c1` [D15], the pIC50 at HDAC2 (setting [2]), at HDAC3/NcoR2 (setting [2]) and against HDAC1 was above 6.00 in each case.

As for `Nc1cc(F)ccc1NC(=O)/C=C/c1cnn(CCOc2ccccc2)c1` [D16], the figures for the pIC50 against HDAC2 (setting [2]), against HDAC3/NcoR2 (setting [2]) and against HDAC1 were 5.30 to 6.00, above 6.00 and 5.30 to 6.00, respectively.

Turning to `CCOCc1cn2cc(/C=C/C(=O)Nc3ccccc3N)sc2n1` [E1, (E)-N-(2-aminophenyl)-3-(6-(ethoxymethyl)imidazo[2,1-b]thiazol-2-yl)acrylamide], the pIC50 is 5.00 to 5.30 at HDAC2 (setting [2]), above 6.00 on HDAC3/NcoR2 (setting [2]) and 5.30 to 6.00 at HDAC1.

Take `Nc1ccccc1NC(=O)/C=C/c1csc(C/C=C/c2ccccc2)n1` [E2, (E)-N-(2-aminophenyl)-3-(2-cinnamylthiazol-4-yl)acrylamide]: the pIC50 at HDAC2 (setting [2]) is 5.30 to 6.00; at HDAC3/NcoR2 (setting [2]), above 6.00; at HDAC1, above 6.00. Moreover, the “acid stability (percent remaining after 24 hours incubation)” value in series [1] is listed as “A (A corresponds to more than 60%)”.

For `Nc1ccccc1NC(=O)c1ccc(C=C2CCN(C(=O)OCc3ccccc3)CC2)cc1` [F1], the pIC50 was 5.30 to 6.00 on HDAC2 (setting [2]), above 6.00 against HDAC3/NcoR2 (setting [2]) and above 6.00 on HDAC1. In addition, in series [1], the “acid stability (percent remaining after 24 hours incubation)” value was “B (B is between 40 and 60%)”.

Consider `Nc1ccccc1NC(=O)c1ccc(C=C2CN(Cc3ccc4cc[nH]c4c3)C2)c(Cl)c1` [F5, 4-((1-((1H-indol-6-yl)methyl)azetidin-3-ylidene)methyl)-N-(2-aminophenyl)-3-chlorobenzamide], for which the pIC50 against HDAC2 (setting [2]) is 5.30 to 6.00; at HDAC3/NcoR2 (setting [2]), above 6.00; on HDAC1 it was above 6.00.

`Nc1ccccc1NC(=O)c1ccc(C=C2CN(Cc3cccnc3)C2)c(Cl)c1` [F6] had a pIC50 at HDAC2 (setting [2]) of 5.30 to 6.00.

Values taken from patent publication US9908899B2 (BIOMARIN PHARMACEUTICAL INC., priority 2011, dated 2018).
